Assay: THC in blood, eccrine sweat, apocrine sweat and urine after smoking a THC containing product
Type: in vivo, human
Experimental: Samples of apocrine and eccrine sweat were collected prior to oral consumption of a THC containing product. No THC was detected in either sample. The test individual then orally consumed (smoked) a quantity of a THC containing product. Small quantities (0.5 cc) of apocrine and eccrine sweat was separately collected over a period of 30 minutes under ambient conditions to induce sweating. When the collected samples were tested using standard laboratory tests for THC metabolites […].

## CCCCCc1cc(O)c2c(c1)OC(C)(C)[C@@H]1CCC(C)=C[C@@H]21 [Delta 9 THC, delta nine tetrahydrocannibinol]
Apocrine sweat (0.5 cc) collected over 30 minutes after smoking a THC containing product
  Delta 9 THC concentration in apocrine sweat: 107 nanograms/ml
blood, test individual after smoking a THC containing product, standard laboratory test for THC
  Delta 9 THC concentration in blood: 21 nanograms/ml
Eccrine sweat (0.5 cc) collected over 30 minutes after smoking a THC containing product
  Delta 9 THC concentration in eccrine sweat: 4 nanograms/ml
Ratio apocrine sweat / blood
  Quantity of THC in apocrine sweat relative to blood: 5.1 times
Ratio apocrine sweat / eccrine sweat
  Quantity of THC in apocrine sweat relative to eccrine sweat: 26.75 times
urine, after smoking a THC containing product
  Delta 9 THC concentration in urine: undetect-

— patent US20030199743A1, “Screening test and procedure using apocrine sweat” (priority 2000, published 2003)
